Columns and labels:
Assay type in all cases: binding
Aβ1-42 oligomers [1] = target: T1, Aβ1-42 oligomers (Homo sapiens, UniProt P05067); experiment: Selectivity for Aβ variant oligomers (fluorescence); conditions: oligomeric Aβ variants 10 µM each; IK15j (10 µM)
T1 construct: Aβ1-42 peptide was aggregated at 37 °C for 8 hours
Description: Accordingly, Aβ variant oligomers were prepared and incubated with IK15j to investigate the selectivity of the compound for Aβ variants. Briefly, samples of oligomeric Aβ1-40, Aβ1-42, and AβpE3-42 (10 µM each) were each treated with IK15j (10 µM), and the fluorescence intensity of each Aβ variant sample was measured.

[2] = target: T2, Aβ oligomer-albumin complex (Homo sapiens, UniProt P05067); experiment: Plate-immobilized Aβ oligomer-albumin complexes versus Aβ oligomers; conditions: immobilized on a plate; IK15j (25 µM)
T2 construct: purchased Sigma-Aldrich (albumin)
Description: Full-length Aβ1-42 peptide was immobilized on a maleimide-activated microplate. Then, the plate was treated with additional Aβ1-42 peptide (10 µM) at 37°C for 8 hours. After peptide immobilization, unbound peptides were removed by washing three times with 200 µL of wash buffer. To form albumin-Aβ oligomer complexes, the plate was treated with albumin (10 µM, Sigma-Aldrich, USA) at room temperature for 24 hours, and unbound residues were removed by washing three times with 200 µL of wash buffer. The control Aβ oligomer wells were not treated with albumin. Each well was treated with the compound of the present disclosure (100 µM), and the signal of each sample was detected using a microplate reader (λex = 285 nm / λem = 475 nm).
Subsequently, both wells were treated with IK15j (25 µM), and the signals were compared (FIG. 9D).

fibrinogen = target: T3, fibrinogen (Homo sapiens, UniProt P02671+P02675+P02679); experiment: Selectivity for blood proteins: fibrinogen; conditions: IK15j (25 µM)
T3 construct: purchased Sigma-Aldrich
T3 sequence (P02671 20-629 limits assumed): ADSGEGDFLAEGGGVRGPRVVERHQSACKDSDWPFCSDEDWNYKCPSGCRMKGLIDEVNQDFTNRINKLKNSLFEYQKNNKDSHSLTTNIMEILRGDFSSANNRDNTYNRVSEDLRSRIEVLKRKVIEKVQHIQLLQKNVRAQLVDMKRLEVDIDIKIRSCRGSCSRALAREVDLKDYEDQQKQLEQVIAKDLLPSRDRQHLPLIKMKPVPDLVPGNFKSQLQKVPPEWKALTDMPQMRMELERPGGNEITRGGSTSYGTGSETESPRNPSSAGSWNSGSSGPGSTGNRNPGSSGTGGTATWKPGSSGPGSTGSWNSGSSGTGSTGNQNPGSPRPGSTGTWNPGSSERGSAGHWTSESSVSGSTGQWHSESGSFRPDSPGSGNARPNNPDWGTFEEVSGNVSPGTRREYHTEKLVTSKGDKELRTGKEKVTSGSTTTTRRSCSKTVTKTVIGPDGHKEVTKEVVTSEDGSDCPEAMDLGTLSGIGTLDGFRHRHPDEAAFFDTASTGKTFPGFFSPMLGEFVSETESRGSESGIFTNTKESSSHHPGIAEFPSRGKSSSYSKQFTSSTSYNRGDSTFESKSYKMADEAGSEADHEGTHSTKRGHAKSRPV
T3 sequence (P02675 31-491): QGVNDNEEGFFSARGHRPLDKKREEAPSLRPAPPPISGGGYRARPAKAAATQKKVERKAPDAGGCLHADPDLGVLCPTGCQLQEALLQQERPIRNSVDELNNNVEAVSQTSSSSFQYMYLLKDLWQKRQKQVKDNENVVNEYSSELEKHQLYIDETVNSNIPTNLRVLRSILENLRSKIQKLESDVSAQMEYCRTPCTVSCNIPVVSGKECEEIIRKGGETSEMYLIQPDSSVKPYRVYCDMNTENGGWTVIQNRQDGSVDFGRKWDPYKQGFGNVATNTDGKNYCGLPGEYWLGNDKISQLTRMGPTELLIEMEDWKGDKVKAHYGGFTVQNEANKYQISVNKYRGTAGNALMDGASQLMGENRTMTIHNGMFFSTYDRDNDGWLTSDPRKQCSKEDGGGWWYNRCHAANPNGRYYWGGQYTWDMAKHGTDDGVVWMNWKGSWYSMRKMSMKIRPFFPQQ
T3 sequence (P02679 27-453): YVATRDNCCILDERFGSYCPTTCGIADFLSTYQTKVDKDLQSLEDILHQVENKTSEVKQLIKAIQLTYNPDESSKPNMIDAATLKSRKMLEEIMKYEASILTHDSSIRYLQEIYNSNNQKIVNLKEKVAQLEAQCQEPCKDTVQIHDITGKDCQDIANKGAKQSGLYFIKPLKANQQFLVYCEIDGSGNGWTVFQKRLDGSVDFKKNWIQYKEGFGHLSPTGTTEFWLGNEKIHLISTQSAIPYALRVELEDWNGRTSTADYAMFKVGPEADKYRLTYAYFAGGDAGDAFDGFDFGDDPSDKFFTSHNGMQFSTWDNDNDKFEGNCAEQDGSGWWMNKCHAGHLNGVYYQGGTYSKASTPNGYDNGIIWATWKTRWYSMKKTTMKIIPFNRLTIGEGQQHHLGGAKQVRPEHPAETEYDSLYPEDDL
Description: (§1) Aβ1-42 peptide was aggregated at 37 °C for 8 hours, and 25 µM of Aβ1-42 oligomers, albumin (Sigma-Aldrich, USA), and fibrinogen (Sigma-Aldrich, USA) were seeded into a black microplate. Each sample was treated with IK15j (100 µM) for 8 hours at room temperature. The signal of each sample was detected using a microplate reader (λex = 285 nm / λem = 475 nm).
(§2) Excluding water, the solid components of plasma consist of coagulation factors and plasma proteins. Albumin is the most abundant protein in plasma, and fibrinogen is a major coagulation factor in plasma. Considering the possibility that fibrinogen or albumin might interact with AD diagnostic tools and interfere with compound selectivity, IK15j (25 µM) was incubated with Aβ1-42, albumin, or fibrinogen as described in Reference Example 10, and the fluorescence signal of each sample was measured to evaluate the selectivity of the compound of the present disclosure against these proteins.

Aβ1-42 oligomers [3] = target: T1, Aβ1-42 oligomers; experiment: Selectivity for blood proteins: Aβ1-42 oligomers; conditions: IK15j (25 µM); compared with albumin and fibrinogen
Description: as §1, §2

T1 sequence (P05067 672-713): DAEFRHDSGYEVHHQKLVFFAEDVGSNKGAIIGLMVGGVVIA
T2 sequence (P05067 672-713, one chain of several): as the sequence (P05067 672-713) above

fluorescence intensity in the presence of Aβ1-42 oligomers compared to Aβ1-40 or AβpE3-42 oligomers (Aβ1-42 oligomers [1]): increased markedly
interaction with fibrinogen (fibrinogen): did not interact
fluorescence intensity in the presence of Aβ1-42 oligomers compared to other proteins (Aβ1-42 oligomers [3]): increased markedly
SMILES: Cc1ccc2c(c1)c(-c1ccccc1)cn1c(C)cc(C#N)c21 [IK15j, 3,8-dimethyl-6-phenylpyrrolo[2,1-a]isoquinoline-1-carbonitrile]
fluorescence intensity, Aβ oligomer-albumin complex versus Aβ oligomers alone [2]: no significant difference in fluorescence intensity
